Active and inactive are the calls of the source. The calls are words filed in the database; no cut-off is given here.
Key:
[1] = tested on: Mus musculus; experiment: Improvement of social recognition memory in juvenile unfamiliar male C57Bl6 mouse assessed as reduction in exploration time at 0.1 nmol/uL, ICV administered post acquisition phase and measured after 48 hrs at retention test phase; assay type: functional, organism-based
[2] = tested on: Mus musculus; experiment: Improvement of social recognition memory in juvenile familiar male C57Bl6 mouse assessed as reduction in exploration time at 0.1 nmol/uL, ICV administered post acquisition phase and measured after 48 hrs at retention test phase; assay type: functional, organism-based
[3] = tested on: Mus musculus; experiment: Improvement of social recognition memory in juvenile unfamiliar male C57Bl6 mouse assessed as reduction in exploration time by measuring discrimination index at 0.1 nmol/uL, ICV administered post acquisition phase and measured after 48 hrs at retention test phase; assay type: functional, organism-based
[4] = tested on: Mus musculus; experiment: Improvement of social recognition memory in juvenile familiar male C57Bl6 mouse assessed as reduction in exploration time by measuring discrimination index at 0.1 nmol/uL, ICV administered post acquisition phase and measured after 48 hrs at retention test phase; assay type: functional, organism-based
[5] = tested on: Mus musculus; experiment: Improvement of social recognition memory in juvenile unfamiliar male C57Bl6 mouse assessed as reduction in exploration time at 0.5 to 25 nmol/uL, ICV administered post acquisition phase and measured after 48 hrs at retention test phase; assay type: functional, organism-based; details: dose 0.5-25 nmol/uL
[6] = tested on: Mus musculus; experiment: Improvement of social recognition memory in juvenile familiar male C57Bl6 mouse assessed as reduction in exploration time at 0.5 to 25 nmol/uL, ICV administered post acquisition phase and measured after 48 hrs at retention test phase; assay type: functional, organism-based; details: dose 0.5-25 nmol/uL
[7] = target: Acetylcholinesterase (Electrophorus electricus, UniProt O42275)
Chain of Acetylcholinesterase (O42275 whole entry): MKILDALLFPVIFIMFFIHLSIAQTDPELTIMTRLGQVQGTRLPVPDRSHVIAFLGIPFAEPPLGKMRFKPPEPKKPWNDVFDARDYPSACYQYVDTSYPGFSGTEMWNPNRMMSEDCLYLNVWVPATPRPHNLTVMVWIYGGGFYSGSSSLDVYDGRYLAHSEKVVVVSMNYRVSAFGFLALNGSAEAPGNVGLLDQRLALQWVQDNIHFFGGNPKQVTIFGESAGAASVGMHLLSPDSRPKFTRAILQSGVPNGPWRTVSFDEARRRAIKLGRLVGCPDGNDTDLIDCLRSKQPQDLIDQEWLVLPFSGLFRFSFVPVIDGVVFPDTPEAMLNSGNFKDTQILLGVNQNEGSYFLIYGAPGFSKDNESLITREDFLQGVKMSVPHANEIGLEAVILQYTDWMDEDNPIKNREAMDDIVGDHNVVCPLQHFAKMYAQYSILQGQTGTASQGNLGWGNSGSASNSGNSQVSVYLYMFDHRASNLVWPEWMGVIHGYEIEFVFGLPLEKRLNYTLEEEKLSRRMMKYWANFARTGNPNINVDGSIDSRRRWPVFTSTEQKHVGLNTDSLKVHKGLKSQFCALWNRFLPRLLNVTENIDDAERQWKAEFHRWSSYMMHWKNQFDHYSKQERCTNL
Description: Inhibition of electric eel AChE by microplate reader based analysis

[8] = target: Cholinesterase (Equus caballus, UniProt P81908)
Chain of Cholinesterase (P81908 whole entry): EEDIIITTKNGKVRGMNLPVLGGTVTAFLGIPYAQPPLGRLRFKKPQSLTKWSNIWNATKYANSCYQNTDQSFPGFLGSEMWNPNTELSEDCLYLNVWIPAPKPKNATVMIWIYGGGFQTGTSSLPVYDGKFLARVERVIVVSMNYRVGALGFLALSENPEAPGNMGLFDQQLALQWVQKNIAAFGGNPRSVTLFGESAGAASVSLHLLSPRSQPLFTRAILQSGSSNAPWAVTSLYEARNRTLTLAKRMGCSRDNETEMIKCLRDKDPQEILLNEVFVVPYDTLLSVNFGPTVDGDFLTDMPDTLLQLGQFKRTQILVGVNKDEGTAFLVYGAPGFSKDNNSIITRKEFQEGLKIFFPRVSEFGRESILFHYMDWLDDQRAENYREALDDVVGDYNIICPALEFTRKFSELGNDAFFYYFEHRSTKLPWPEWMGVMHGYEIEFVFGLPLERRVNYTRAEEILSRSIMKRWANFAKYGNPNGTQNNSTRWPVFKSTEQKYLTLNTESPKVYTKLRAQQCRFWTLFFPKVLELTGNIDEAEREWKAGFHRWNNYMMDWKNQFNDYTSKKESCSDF
Description: Inhibition of equine serum BuChE by microplate reader based analysis

[9] = target: Carbonic anhydrase 1 (Homo sapiens) (UniProt P00915)
Chain of Carbonic anhydrase 1 (Homo sapiens) (P00915 2-261 limits assumed): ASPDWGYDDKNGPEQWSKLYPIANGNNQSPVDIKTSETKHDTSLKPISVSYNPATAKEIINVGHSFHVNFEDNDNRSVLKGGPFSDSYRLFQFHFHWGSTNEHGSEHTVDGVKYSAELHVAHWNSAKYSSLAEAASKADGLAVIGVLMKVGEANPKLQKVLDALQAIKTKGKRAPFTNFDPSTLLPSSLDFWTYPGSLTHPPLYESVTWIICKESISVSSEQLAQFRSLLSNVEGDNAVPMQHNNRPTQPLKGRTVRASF
Description: Binding affinity to human carbonic anhydrase 1 assessed as activation constant by phenol red dye based stopped-flow method

[10] = target: Carbonic anhydrase 2 (Homo sapiens) (UniProt P00918); details: filed as activator
Description: Binding affinity to human carbonic anhydrase 2 assessed as activation constant by phenol red dye based stopped-flow method

[11] = target: Carbonic anhydrase 4 (Homo sapiens) (UniProt P22748)
Chain of Carbonic anhydrase 4 (Homo sapiens) (P22748 whole entry): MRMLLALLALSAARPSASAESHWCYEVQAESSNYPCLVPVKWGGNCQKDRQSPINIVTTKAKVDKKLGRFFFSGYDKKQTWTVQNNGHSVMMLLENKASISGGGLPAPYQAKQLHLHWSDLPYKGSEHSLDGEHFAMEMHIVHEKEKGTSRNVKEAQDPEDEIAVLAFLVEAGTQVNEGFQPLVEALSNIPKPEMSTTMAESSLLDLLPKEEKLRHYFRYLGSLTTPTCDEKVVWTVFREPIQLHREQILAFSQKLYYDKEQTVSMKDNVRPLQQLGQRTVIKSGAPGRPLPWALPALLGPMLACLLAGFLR
Description: Binding affinity to human carbonic anhydrase 4 assessed as activation constant by phenol red dye based stopped-flow method

[12] = target: Carbonic anhydrase 5B, mitochondrial (Homo sapiens) (UniProt Q9Y2D0)
Chain of Carbonic anhydrase 5B, mitochondrial (Homo sapiens) (Q9Y2D0 whole entry): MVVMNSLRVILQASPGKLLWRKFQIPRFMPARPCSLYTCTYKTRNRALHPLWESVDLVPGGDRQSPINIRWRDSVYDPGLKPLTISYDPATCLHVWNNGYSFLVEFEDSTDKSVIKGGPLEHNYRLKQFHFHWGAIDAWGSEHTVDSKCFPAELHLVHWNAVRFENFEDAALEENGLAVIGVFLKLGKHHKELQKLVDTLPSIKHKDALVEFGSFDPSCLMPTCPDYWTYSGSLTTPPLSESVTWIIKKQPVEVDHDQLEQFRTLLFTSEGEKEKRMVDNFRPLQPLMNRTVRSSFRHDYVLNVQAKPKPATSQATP
Description: Binding affinity to human carbonic anhydrase 5B assessed as activation constant by phenol red dye based stopped-flow method

[13] = target: Carbonic anhydrase 7 (Homo sapiens) (UniProt P43166)
Chain of Carbonic anhydrase 7 (Homo sapiens) (P43166 whole entry): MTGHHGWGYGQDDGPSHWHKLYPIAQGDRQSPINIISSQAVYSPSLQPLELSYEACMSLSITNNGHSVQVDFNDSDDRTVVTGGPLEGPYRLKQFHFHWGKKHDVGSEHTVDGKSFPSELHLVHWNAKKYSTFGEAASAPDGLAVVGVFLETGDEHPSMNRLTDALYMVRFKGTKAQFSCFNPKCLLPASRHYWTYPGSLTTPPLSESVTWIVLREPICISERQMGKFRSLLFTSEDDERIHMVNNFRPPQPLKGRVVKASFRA
Description: Binding affinity to human carbonic anhydrase 7 assessed as activation constant by phenol red dye based stopped-flow method

[14] = tested on: Mus musculus; experiment: Improvement of social recognition memory in juvenile unfamiliar male C57Bl6 mouse assessed as reduction in exploration time at 0.5 nmol/uL, ICV administered post acquisition phase and measured after 48 hrs at retention test phase; assay type: functional, organism-based
[15] = tested on: Mus musculus; experiment: Improvement of social recognition memory in juvenile familiar male C57Bl6 mouse assessed as reduction in exploration time at 0.5 nmol/uL, ICV administered post acquisition phase and measured after 48 hrs at retention test phase; assay type: functional, organism-based
[16] = tested on: Mus musculus; experiment: Improvement of social recognition memory in juvenile unfamiliar male C57Bl6 mouse assessed as reduction in exploration time by measuring discrimination index at 0.5 nmol/uL, ICV administered post acquisition phase and measured after 48 hrs at retention test phase; assay type: functional, organism-based
[17] = tested on: Mus musculus; experiment: Improvement of social recognition memory in juvenile familiar male C57Bl6 mouse assessed as reduction in exploration time by measuring discrimination index at 0.5 nmol/uL, ICV administered post acquisition phase and measured after 48 hrs at retention test phase; assay type: functional, organism-based
[18] = tested on: Mus musculus; experiment: Improvement of social recognition memory in juvenile familiar male C57Bl6 mouse assessed as reduction in exploration time at 5 nmol/uL, ICV administered post acquisition phase and measured after 48 hrs at retention test phase in presence of tacrine; assay type: functional, organism-based
[19] = tested on: Mus musculus; experiment: Improvement of social recognition memory in juvenile unfamiliar male C57Bl6 mouse assessed as reduction in exploration time at 5 nmol/uL, ICV administered post acquisition phase and measured after 48 hrs at retention test phase in presence of tacrine; assay type: functional, organism-based
[20] = tested on: Mus musculus; experiment: Improvement of social recognition memory in juvenile familiar male C57Bl6 mouse assessed as reduction in exploration time at 25 nmol/uL, ICV administered post acquisition phase and measured after 48 hrs at retention test phase in presence of tacrine; assay type: functional, organism-based
[21] = tested on: Mus musculus; experiment: Improvement of social recognition memory in juvenile unfamiliar male C57Bl6 mouse assessed as reduction in exploration time at 25 nmol/uL, ICV administered post acquisition phase and measured after 48 hrs at retention test phase in presence of tacrine; assay type: functional, organism-based
[22] = tested on: Mus musculus; experiment: Improvement of social recognition memory in juvenile familiar male C57Bl6 mouse assessed as discrimination index at 50 nmol/uL, ICV administered post acquisition phase and measured after 48 hrs at retention test phase (reference value: -0.07+/-0.0124); assay type: functional
[23] = tested on: Mus musculus; experiment: Improvement of social recognition memory in juvenile familiar male C57Bl6 mouse assessed as discrimination index at 25 nmol/uL, ICV administered post acquisition phase and measured after 48 hrs at retention test phase in presence of tacrine (reference value: -0.07+/-0.0124); assay type: functional

Row | Compound | Activity [1] | Activity [2] | Activity [3] | Activity [4] | Activity [5] | Activity [6] | IC50 [7] [nM] | IC50 [8] [nM] | KA ([9]; filed as activator) [nM] | KA [10] [nM] | KA ([11]; filed as activator) [µM] | KA ([12]; filed as activator) [µM] | KA ([13]; filed as activator) [nM] | also measured
1 | N[C@@H](Cc1ccccc1)C(=O)NCCCCCNc1c2c(nc3ccccc13)CCCC2 | inactive | inactive | inactive | inactive | Active | Active | 7.4 | 1.9 | 782 | 93.4 | 2.61 | 1.32 | 192 | 
2 | COC(=O)[C@H](Cc1c[nH]cn1)NCCCCCCNc1c2c(nc3ccccc13)CCCC2 | inactive | inactive | inactive | inactive | Active | Active | 72.1 | 4.2 | 266 | 76.9 | 0.918 | 0.893 | 98 | 
3 | N[C@@H](Cc1c[nH]cn1)C(=O)NCCCCCNc1c2c(nc3ccccc13)CCCC2 | inactive | inactive | inactive | inactive | Active | Active | 29.8 | 6.8 | 565 | 65.1 | 0.757 | 1.01 | 96.4 | 
4 | N[C@@H](CCCCNC(=O)OCc1ccccc1)C(=O)NCCCNc1c2c(nc3ccccc13)CCCC2 |  |  |  |  |  |  | 110 | 0.3 | 2080 | 1200 | 8.52 | 4.95 | 3080 | Activity [14]: inactive; Activity [15]: inactive; Activity [16]: inactive; Activity [17]: inactive
5 | CC(C)(C)OC(=O)N[C@@H](Cc1cn(C(=O)OC(C)(C)C)cn1)C(=O)NCCCCNc1c2c(nc3ccccc13)CCCC2 |  |  |  |  |  |  | 122 | 0.064 |  | 12400 |  |  |  | KA [9]: > 50000 nM; KA [11]: > 50 µM; KA [12]: > 50 µM; KA [13]: > 50000 nM
6 | N[C@H](Cc1ccccc1)C(=O)O [D-PHENYLALANINE] |  |  |  |  |  |  |  |  |  |  |  |  |  | Activity [18]: inactive; Activity [19]: inactive; Activity [20]: Active; Activity [21]: Active; Activity_index [22]: 0.373; Activity_index [23]: 0.205
7 | N[C@@H](Cc1ccccc1)C(=O)NCCCCNc1c2c(nc3ccccc13)CCCC2 |  |  |  |  |  |  | 465 | 9.5 | 432 | 565 | 7.62 | 4.79 | 433 | 
8 | CC(C)(C)OC(=O)N[C@@H](Cc1c[nH]c2ccccc12)C(=O)NCCCCCNc1c2c(nc3ccccc13)CCCC2 |  |  |  |  |  |  | 108 | 0.22 | 1010 | 2940 | 5.67 | 7.15 | 1020 | 
9 | CC(C)(C)OC(=O)N[C@@H](Cc1c[nH]c2ccccc12)C(=O)NCCCCCCNc1c2c(nc3ccccc13)CCCC2 |  |  |  |  |  |  | 15.9 | 0.26 | 1120 | 2660 | 4.46 | 24.2 | 1130 | 
